From patent US4317768A, “Dihydropyridine derivatives as stabilizers for vinyl chloride polymers” (priority 1977, dated 1982)

Key:
[1] = Photostabilizing power, PVC plates exposed to the sun, GARDNER scale
Protocol: (§1) The photostabilizing power of the compounds of the invention was studied by exposing to the sun polyvinyl chloride plates which had been stabilized either by a dihydropyridine of the invention or by 2-phenyl-indole, or again by 2-(3'-methoxy-4'-hydroxy)-indole. This last product is an extremely valuable thermostabilizer for thermoplastic resins and is described in British Pat. No. 1,489,685.
(§2) The resin given hereunder was prepared by mixing on cylinders at 160° C.:
(§3) The plates of stabilized polyvinyl chloride, together with a plate which had not been stabilized, were stood in the sun under the same conditions and at the same time. Their colour was measured after 6 hours and 12 hours of exposure.
(§4) The coloration of the plates was determined according to two methods:
On the plates themselves, following the GARDNER scale, as in the section on thermostability,
The sign + means that the coloration lies between the lower unit and the upper half-unit. Thus, 3+ means that the coloration lies between 3 and 3.5. Similarly, the sign - means that the coloration lies between the lower half-unit and the upper unit.

[2] = Photostabilizing power, tetrahydrofuran solution of plates exposed to the sun, French Pharmacopeia
Protocol: as §1, §2, §3, §4
On a solution of these plates in tetrahydrofuran, the coloration of th solution being measured according to the French Pharmacopeia (IXth edition, II-338).

[3] = Comparison with stabilizer G1, rigid co-polymer, 0.5 part, 185° C.
Excerpt: (b) Comparison with stabilizer G1
Stabilizer G1 is a mixture of 1,4-butanediol-β-aminocrotonate and of β-aminocrotonate of alcohols containing from 16 to 18 carbon atoms.

[4] = Static thermostability (GARDNER method), rigid PVC sheets, 210° C., 0.3 part stabilizer
Protocol: This study was carried out according to the GARDNER method, described in British Pat. No. 1,489,685.
The reference substance was 2-phenyl-indole, a well-known and widely used stabilizer.
The stabilizer (dihydropyridine or 2-phenyl-indole) and the other usual ingredients were mixed with powdered vinyl resins and the mixtures were calendered at a temperature of 160° C. to give rigid sheets.
The sheets were then heated in a thermostated oven (185° C. or 210° C.) for different intervals of time until incipient carbonization.
The coloration of the samples was compared to a standard scale of coloration, known as the GARDNER scale and was expressed in terms of the reference figures of the GARDNER scale.
This study was carried out with the following resin:
Polyvinyl chloride resin
SL 2016 is a solution of zinc-2-ethyl-hexanoate in a mixture of hydrocarbons boiling between 158° C. and 184° C.
The first trial was carried out at 210° C. with a resin containing 0.3 part by weight of stabilizer, the sheets being removed from the oven every three minutes over a period of 21 minutes.

[5] = Photostabilizing power, sheets exposed to the sun, co-polymer (a)
Protocol: The sheets were exposed to the sun and their colorations were also determined according to the GARDNER method.

Compound | Coloration of the plates GARDNER ([1]; exposure to sun 6h) | Coloration of the plates GARDNER ([1]; exposure to sun 12h) | Coloration of the plates FRENCH PHARMACOPEIA ([2]; exposure to sun 6h) | Coloration of the plates FRENCH PHARMACOPEIA ([2]; exposure to sun 12h) | coloration, GARDNER scale ([4]; 0 min) | coloration, GARDNER scale ([4]; 3 min) | coloration, GARDNER scale ([4]; 6 min) | coloration, GARDNER scale ([4]; 9 min) | coloration, GARDNER scale ([4]; 12 min) | coloration, GARDNER scale ([4]; 15 min) | coloration, GARDNER scale ([4]; 18 min) | further results
COc1cc(-c2cc3ccccc3[nH]2)ccc1O [2-(3'-Methoxy-4'-hydroxy-phenyl)-indole, reference compound] | 4 | 8 | B4 to JB4 | B3 to JB3 |  |  |  |  |  |  |  | Coloration of the plates GARDNER ([1]; exposure to sun 0): 1
CCCCOCCOC(=O)C1=C(C)NC(C)=C(C(=O)OCCOCCCC)C1 [Compound 27] |  |  |  |  | 1 | 1 | 1 | 2 | 5 | 14 | Burnt | coloration, GARDNER scale ([3]; 0 min): 1; coloration, GARDNER scale ([3]; 2 min): 1; coloration, GARDNER scale ([3]; 4 min): 4; coloration, GARDNER scale ([3]; 6 min): 7; coloration, GARDNER scale ([3]; 8 min): 12.5; coloration, GARDNER scale ([3]; 10 min): 17; Colour in GARDNER degrees ([5]; After 24 hours): 2 GARDNER degrees; Colour in GARDNER degrees ([5]; Time 0): 1 GARDNER degrees
COC(=O)C1=C(C)NC(C)=C(C(=O)OC)C1C [Compound 29, 2,4,6-Trimethyl-3,5-dicarbomethoxy-1,4-dihydropyridine] | 3 | 5 | JV5 | JV4 | 1 | 2 | 3 | 6 | 7 | 10 | 10.5 | Coloration of the plates FRENCH PHARMACOPEIA ([2]; exposure to sun 0): JV6; coloration, GARDNER scale ([4]; 21 min): Burnt
